“Also recorded” adds a separate entry of the source. Where two headings read alike, the source gives them in different places. Bridge positions count the residues as written; N and C are the ends. Square brackets hold non-standard residues; d marks the D form. Peptide text beside a SMILES is read from it. hArg = N=C(N)NCCCC[C@H](N)C(=O)O
Legend:
PCSK9Δhelix [1] = target: T1, PCSK9Δhelix (Homo sapiens, UniProt Q8NBP7); test: Surface plasmon resonance biosensor-based affinity analysis (Example 4); format: binding
T1 construct: Human PCSK9 construct M1-Q692 with an engineered TEV site (residue deletion Y166, R167); made in house; host or cells: CHO

PCSK9 [2] = target: T2, PCSK9 (Homo sapiens, UniProt Q8NBP7); test: PCSK9/EGF(A) TR-FRET binding assay
PCSK9Δhelix [3] = target: T1, PCSK9Δhelix; test: PCSK9Δhelix/Ab20 TR-FRET binding assay
His-EGF(A)-Fc = His-EGF(A)-Fc TR-FRET counterscreen
PCSK9 [4] = target: T2, PCSK9; test: Cell surface LDLR assay with HepG2 cells; format: cell-based; details: for surface LDLR levels restored: maximal restoration, percent of control without PCSK9
Procedure: HepG2 cells (ATCC; Manassas, Va.) were seeded into 48 well plates (Corning; Corning, N.Y.) at 1×10^5 cells per well in high glucose medium (DMEM, Gibco; Carlsbad, Calif.) containing 2 mM glutamine (Sigma), penicillin/streptomycin (Gibco) and 10% FBS (Sigma; St. Louis, Mo.) and incubated overnight. Then the medium was changed to DMEM containing 10% lipoprotein deficient serum (LPDS, Sigma). After 24 h, 15 μg/mL PCSK9 was incubated with peptides or Fab33 for 30 min, added to the cells and incubated at 37° C. for 4 h. Cells were rinsed with PBS and detached using Cell Dissociation Buffer in PBS (Gibco). After centrifugation, the resuspended cells were incubated with 1:20 anti LDLR antibody (Progen Biotechnik; Heidelberg, Germany) on ice for 10 min. The samples were then washed with PBS and incubated with 1:200 diluted goat anti mouse IgG (H+L) Alexa Fluor 488 (Invitrogen; Carlsbad, Calif.) on ice for 5 min. After two PBS washes, cells were re suspended in PBS containing 2.5 μg/mL of propidium iodide and analyzed on a dual laser flow cytometer (FACScan, Becton Dickinson; Franklin Lakes, N.J.). Relative fluorescence units (RFUs) were used to quantify LDLR expression levels on the HepG2 cell surface. Cell surface LDLR levels were expressed as percent of LDLR levels measured in the absence of PCSK9 (=control).
The effect of Compound 229 on PCSK9-mediated LDL receptor degradation was measured in a HepG2 cell assay as previously described (Zhang et al., J Biol Chem. 2014 Jan. 10; 289(2):942-55). Peptides at various concentrations were preincubated with 15 μg/mL PCSK9 in the presence of 0.5% DMSO for 30 min prior to the addition to cells. After a 4 h incubation, the cells were processed for measurements of LDL receptor surface levels by flow cytometry as described (Zhang et al., J Biol Chem. 2014 Jan. 10; 289(2):942-55) (FIG. 37).

PCSK9 [5] = target: T2, PCSK9; test: Phage competition ELISA; format: binding; details: binding of peptide-displaying phage to PCSK9; listed as Pep2-8_K9gvpep4
How it was run: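 Fixed sub-saturating peptide-phage concentration (80% of max binding signal) mixed with serially diluted synthetic peptides in PBT, added to plates bearing immobilized biotinylated PCSK9 or PCSK9Δhelix, 1 h at room temperature. Bound phage detected with anti-M13-HRP at OD450 nm; IC50 from curve fit, 3 independent repeats.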

PCSK9Δhelix [6] = target: T1, PCSK9Δhelix; test: Phage competition ELISA; details: binding of peptide-displaying phage to PCSK9Δhelix
Procedure: The sequences of selected clones were fused to the N-terminus of M13 major coat protein (p8) using Kunkel mutagenesis method (Kunkel et al., Methods Enzymol 154, 367-82). The resulting construct was transformed to E. Coli. XL1 blue, single colony was grown in 1 mL 2YT supplemented with 50 μg/mL carbenicillin, 10 μg/mL Tetracycline and M13 KO7 helper phage at 37° C. for 2 h, Kanamycin was added to final concentration of 25 μg/mL, growth was continued at 37° C. for 6 h. The culture was transferred to 30 mL 2YT supplemented with 50 μg/mL carbenicillin and 25 μg/mL kanamycin and grown at 37° C. overnight. The next day, the phage was harvested and purified using the standard protocol (Tonikian et al. Nat Protoc. 2007; 2(6):1368-86). […] The bound phage was detected with anti-M13-HRP and the ELISA signal was read at OD450 nm. […] Sub-saturating phage concentration that gave 80% of maximum binding signal was determined by the binding curve.
IC50 measurements were performed by mixing a fixed sub-saturating concentration of peptide-displaying phage with a serial dilution of synthetic peptides in PBT buffer. […] The plates were then washed 10 times with PBT buffer and the bound phage was detected by anti-M13-HRP. […]

PCSK9 [7] = target: T2, PCSK9; test: PCSK9/LDLR-Fc TR-FRET assay (LDLR assay); format: binding; details: for IC50: Table 11, LDLR-Fc, average ±S.D. of three experiments
Procedure: In black 1536-well assay plates (MaKO, Aurora® Microplates, Whitefish, Mont.), 40 nL of peptide in DMSO were preincubated with 2 μL His-tagged PCSK9 plus anti-His-allophycocyanin in assay buffer (50 mM Tris-HCl, pH 7.5, 150 mM NaCl, 2 mM CaCl2, 0.01% Tween®-20, 0.1% bovine gamma globulins, and protease inhibitor cocktail) for 30 min. Then 2 μL of Fc-tagged ligand and anti-Fc-europium in assay buffer were added and allowed to incubate for 2 h. The PCSK9 and ligand conditions for each assay are as follows: 10 nM C-terminal (His)8-tagged PCSK9 (“(His)8” disclosed as SEQ ID NO: 304) and 12 nM EGF(A)-Fc for the EGF(A) assay, 10 nM C-terminal (His)8-tagged PCSK9 (“(His)8” disclosed as SEQ ID NO: 304) and 2.5 nM LDLR-Fc for the LDLR assay, 1.25 nM C-terminal (His)8-tagged PCSK9Δhelix (“(His)8” disclosed as SEQ ID NO: 304) and 0.75 nM Ab20 for the Ab20 assay, and 2 nM His-EGF(A)-Fc alone for the counterscreen. In all assays, anti-His-allophycocyanin and anti-Fc-europium were used at 20 nM and 2 nM, respectively. Fluorescence was measured with excitation at 340 nm and emission at 671 nm and 618 nm. The TR-FRET ratio was calculated as fluorescence at 671 nm/fluorescence at 618 nm. The ratios were normalized to controls and plotted against peptide concentration to determine IC50 values (Screener Analyzer, Genedata, Basel, CH). The peptides were evaluated in three separate experiments per assay with 10-point titrations and n=2 per concentration. The values presented are the average ±S.D. of three independent experiments.

PCSK9 [8] = target: T2, PCSK9; test: SPR affinity measurements of peptide binding (Example 8); details: Example 8, with standard error; read-out: KD, binding affinity to PCSK9 in SPR experiments
Procedure: A Biacore™ T100 or Biacore™ 8K was adjusted to 20° C. The system was primed into assay buffer which consisted of 25 mM HEPES, pH 7.5, 0.15 M NaCl, 0.005% (v/v) Tween® 20, 0.2 mM tris(2-carboxyethyl)phosphine and optionally contained 0.1% (w/v) carboxymethylated dextran (average MW 10 kDa) and 0.2% (w/v) PEG (average MW 3450 Da) in order to reduce potential non-specific binding. Peptides were assayed by capturing fresh PCSK9 or PCSK9Δhelix after each binding regeneration cycle by exploiting a histidine tag and an NTA-sensor chip. The surface was charged with (His)8-tagged PCSK9 (approximately 800 RU captured). […] Compound 19 and Compound 20 were assayed in six serial two-fold dilutions from 100 nM to 3.1 nM. All peptides were analyzed in duplicate by serial injection (50 μL/min for 1 min) of peptide dilution from low to high concentration. The surface was then stripped of target by injecting 0.5 M EDTA, pH 8.0. This sequence was repeated for each peptide binding cycle and blank control cycles.
All SPR data was recorded in duplicate for five, or more serial dilutions, except for the two fusion peptides, which produced extremely low fitting error. Multicycle data (i.e. separate curves for each concentration) and single cycle data (i.e. single curve with serial injection of each concentration) were double referenced and fitted to an interaction model using BIAevaluation software. Peptide binding to PCSK9 produced deviations from a simple 1:1 binding interaction model that required application of a two-state model for determination of Kd while interactions with PCSK9Δhelix conformed well to simple 1:1 binding. Kinetic curvature was poorly defined for rapidly dissociating peptides and in these cases Kd was estimated from a steady-state dose response plot. Kd values were reported with associated standard error, a measure of confidence in that parameter value.

[9] = TR-FRET, Table 8E, additional compounds, read-out: PCSK9/EGF(A) IC50
[10] = Table 11, average ±S.D. of three experiments, read-out: EGF(A) IC50
[11] = TR-FRET, Table 8E, additional compounds, read-out: PCSK9Δhelix/Ab20 IC50
[12] = Table 11, average ±S.D. of three experiments, read-out: Ab20 IC50
[13] = TR-FRET counterscreen, Table 8E, additional compounds

Row | Structure (SMILES) | inhibition in the PCSK9/EGF(A) binding assay (PCSK9 [2]) | inhibition in the PCSK9Δhelix/Ab20 binding assay (PCSK9Δhelix [3]) | surface LDLR levels restored (PCSK9 [4]; HepG2 cells) | IC50 (PCSK9 [2]; [9]) | IC50 (PCSK9 [2]; [10]) | IC50 (PCSK9Δhelix [3]; [11]) | IC50 (PCSK9Δhelix [3]; [12]) | IC50 (His-EGF(A)-Fc; [13]) | inhibition of LDLR-Fc binding to PCSK9 (PCSK9 [7]) | IC50 (PCSK9 [7]) | Kd (PCSK9 [8]) | further results
1 | CC[C@H](C)[C@@H]1NC(=O)[C@H](CCCNC(=N)N)NC(=O)[C@H](CCC(N)=O)NC(=O)[C@H](CC(C)C)NC(=O)[C@H](CC(N)=O)NC(=O)[C@H](Cc2c[nH]c3ccccc23)NC(=O)[C@@H]2CCCN2C(=O)[C@H](CC(C)C)NC(=O)[C@H](CCCNC(=N)N)NC(=O)[C@@H](NC(=O)CNC(=O)[C@H](CO)NC(=O)CNC(=O)[C@@H](NC(=O)[C@H](Cc2c[nH]c3ccccc23)NC(=O)[C@H](CC(=O)O)NC(=O)[C@H](CC(C)C)NC(=O)[C@H](Cc2ccc(O)cc2)NC(=O)[C@H](CCC(=O)O)NC(=O)[C@H](CCC(=O)O)NC(=O)[C@H](Cc2c[nH]c3ccccc23)NC(=O)[C@H](CO)NC(=O)[C@@H](NC(=O)[C@H](Cc2ccccc2)NC(=O)[C@@H](NC(=O)[C@@H](NC(C)=O)[C@@H](C)O)C(C)C)[C@@H](C)O)C(C)C)CSSC[C@@H](C(N)=O)NC(=O)[C@@H]2CCCN2C(=O)[C@H](CC(C)C)NC(=O)CNC1=O [Compound 19] (Ac-TVFTSWEEYLDWVGSGCRLPWNLQRIGLPC-NH2; disulfide 17-30) | potent inhibitor | potent inhibitors | 100% |  |  |  |  |  |  |  |  | Kd range for PCSK9Δhelix binding (PCSK9Δhelix [1]): sub-nanomolar range; Kd (PCSK9Δhelix [1]; Table 7, Target PCSK9Δhelix, SPR at 20° C., read-out: Kd): 0.0989 nM; IC50 (PCSK9 [2]; TR-FRET, Example 7, read-out: PCSK9/EGF(A) IC50): 9 nM; IC50 (PCSK9Δhelix [3]; TR-FRET, Example 7, read-out: PCSK9Δhelix/Ab20 IC50): 2 nM; IC50 (His-EGF(A)-Fc; counterscreen, Example 7): > 50000 nM; EC50 (PCSK9 [4]; HepG2 cells, 15 μg/mL PCSK9, 4 h, FACS): ~500 nM; IC50 in phage competition ELISA (PCSK9 [5]): low nanomolar range; also recorded: single digit nanomolar range; IC50 in phage competition ELISA (PCSK9Δhelix [6]): single digit nanomolar range
2 | CC[C@H](C)[C@H](NC(=O)[C@H](CCCCNC(=N)N)NC(=O)[C@@H](NC(=O)[C@H](CC(C)C)NC(=O)[C@H](CC(N)=O)NC(=O)[C@H](Cc1c[nH]c2ccccc12)NC(=O)CNC(=O)[C@@H]1CCCN1C(=O)[C@H](Cc1ccccc1)NC(=O)[C@H](C)NC(=O)[C@H](Cc1ccccc1)NC(=O)[C@H](CO)NC(C)=O)C(C)C)C(=O)NCC(=O)N[C@@H](CC(C)C)C(=O)N[C@@H](CC(C)C)C(=O)N[C@@H](CCCNC(=N)N)C(N)=O [Compound 228] (Ac-SFAFPGWNLV[hArg]IGLLR-NH2) | inhibited |  |  | 1300 nM | 13200 ± 800 nM | 13000 nM | 1370 ± 120 nM | ≥ 50000 nM | inhibited | 30400 ± 1100 nM | 2800 ± 50 nM | 
3 | CC[C@H](C)[C@H](NC(=O)[C@H](CCCCNC(=N)N)NC(=O)[C@@H](NC(=O)[C@H](CC(C)C)NC(=O)[C@H](CC(N)=O)NC(=O)[C@H](Cc1c[nH]c2ccccc12)NC(=O)CNC(=O)[C@@H]1CCCN1C(=O)[C@H](Cc1ccccc1)NC(=O)[C@H](CO)NC(=O)[C@H](CCC(=O)O)NC(=O)[C@H](CCSC)NC(C)=O)C(C)C)C(=O)NCC(=O)N[C@@H](CC(C)C)C(=O)N[C@@H](CC(C)C)C(=O)N[C@@H](CCCNC(=N)N)C(N)=O [Compound 229] (Ac-MESFPGWNLV[hArg]IGLLR-NH2) | inhibited; also recorded: inhibition | inhibition | ≤ 70% | 810 nM | 8300 ± 100 nM | 8100 nM | 840 ± 80 nM | ≥ 50000 nM | inhibited; also recorded: inhibition | 25000 ± 800 nM | 940 ± 10 nM | improvement of affinity to PCSK9Δhelix versus Compound 192 (PCSK9Δhelix [3]; Table 11): more than 6 fold; response in the His-EGF(A)-Fc counterscreen (His-EGF(A)-Fc): without interference; inhibition of PCSK9-mediated LDLR degradation in HepG2 cells (PCSK9 [4]): concentration-dependent manner; also recorded: concentration-dependent inhibition

— US11034725B2, “Compositions and methods for treating cardiovascular disease” (Genentech, Inc., priority 2016, dated 2021)
